# Key:
# [1] = tested on: DCs obtained from the spleen; assay: Example E: phenotyping of spleen DCs after tail vein injection (CD86); type: in vivo, mice; details: 1 μg tail vein, 24 h
# Experimental: In brief, in each experiment, 1 μg of one of a selection of compounds of the invention was injected into the tail vein of subject mice. 24 h later spleen tissue was removed from the animals and gently teased through gauze into complete medium, supplemented with 5 mM of EDTA. Cells were enriched for CD11c by anti-CD11, magnetic beads using published techniques. Once enriched, they were assayed for maturation markers using antibody staining and flow cytometry. Non-specific staining was addressed by using an antibody specific for the Fc-RIII/II receptor.
# IL-4 and IFN-γ = assay: Serum cytokines after i.v. injection into mice (ELISA); type: in vivo, C57BL/6 mice
# Experimental: C57BL/6 or iNKT^−/− mice were injected i.v. with 1 μg of vehicle, α-GalCer, analog or 25 μg MPL. Twenty hours after injection splenocytes were stained with antibodies against CD11c, B220 and CD86 and analyzed by flow cytometry. (A) Maturation was assessed by the upregulation of CD86 at the cell surface, gating on DC (CD11c^+). Mean fluorescence intensity for each histogram is indicated. These are representative profiles of two independent experiments. 2, 6 and 18-24 h after injection as described, the mice were bled and the serum tested with ELISA for the presence of (B) IL-4 and (C) IFN-γ released in response to the analog.
# Stimulation of iNKT cells by α-GalCer in the context of CD1d rapidly induces release of significant levels of a number of cytokines including IFN-γ and IL-4 (Burdin, Brossay et al, J Immunol, 1998, 161; 3271-81), IL-3 and GM-CSF (Leite-de-Moraes, Lisbonne et al, Eur J Immunol, 2002, 32; 1897-904) with other downstream cell-types including DC (Kitamura, Iwakabe et al, J Exp Med, 1999, 189; 1121-8) and NK cells (Carnaud, Lee et al, J Immunol, 1999, 163; 4647-50) being activated.
# E.G7-OVA tumour cells = assay: Prophylactic challenge with E.G7-OVA tumour cells after co-injection with OVA; type: in vivo, C57BL/6 mice; details: injected with OVA, challenge 7 days later with 1×10^6 E.G7-OVA s.c.
# Experimental: (§1) (A) C57BL/6 mice were co-injected with 1 μg α-GalCer or analog and 800 μg OVA. 6 days later blood samples taken from the tail vein were stained directly ex vivo with fluorescent […]-K^b tetramers and an anti-CD8 antibody and analyzed by flow cytometry. Data are shown as tetramer positive cells as a percentage of CD8^+ cells. (B) 7 days after injection, the mice were challenged in a prophylactic setting with 1×10^6 E.G7-OVA tumour cells s.c. and the size of the tumour monitored over subsequent days.
# OVA specific response = assay: Example C: OVA specific CTL response in mice injected with OVA and compound (tetramer); type: in vivo; details: 400 μg OVA with 1 μg compound i.v.
# Experimental: Subject animals, five mice per group, received an intravenous injection of 400 μg of ovalbumin (OVA) together with 1 μg of one of the compounds of the invention under examination or an equivalent volume of PBS diluted vehicle solution. A subset of mice were injected with 25 μg of the molecule MPL (Sigma-Aldrich; extracted from Salmonella Minnesota) solubilized in PBS.
# Following the injections, blood was obtained from lateral tail veins, and PBLs were isolated, using standard methods. The PBLs were then stained, directly, […], with tetrameric, H-2 Kb/OVA 257-264, H-21 Kb complexes, following Palmowski, et al., J. Immunol., 168:4391-4398 (2002), incorporated by reference. The tetramers were prepared in accordance with Whilan, et al., J. Immunol., 163:4342-4348 (1999), incorporated by reference.
# [2] = tested on: OVA specific IgG antibodies; assay: Example D: OVA specific IgG antibodies in serum of immunized mice (ELISA); type: in vivo; details: ten days following immunization
# Experimental: OVA protein coated ELISA plates, were prepared, using well known methods. Then, blood samples were taken, ten days following immunization, and serum was prepared.
# The samples were taken from mice that had been immunized with OVA only, OVA and Compound 1, arabinitol ceramide, OVA and αGal-Cer, or OVA and Compound 2, glycerol ceramide. Additionally, mice were immunized with each of these schedules with MPL added. Serum IgG titers were measured by adding serial dilutions of mouse serum were detected using horseradish peroxidase (HRP) conjugated α-mouse IgG.
# [3] = tested on: human monocyte derived DCs; assay: Example A: DC maturation markers in human monocyte derived DC with NKT cells (FACS); type: cell-based; details: 100 ng/ml, 36 hours, 10 DC/NKT cell
# Experimental: The methodology of Salio, et al., J. Immunol., 167:1188-1197 (2001), incorporated by reference, was followed. In brief, 2×105 human monocyte derived DCs were pulsed with 100 ng/ml of one of Compounds 2, 3, αGal-Cer, or vehicle solution, as a control. For DC pulsing, each of arabinitol ceramide (Compound 1), threitol ceramide (Compound 3), glycerol ceramide (Compound 2) and αGal-Cer was solubilized in vehicle solution (0.5% Tween 20/PBS), and added to the medium of the DC cultures. […] After 36 hours, supernatant was removed from cultures and analyzed for the presence of known DC maturation markers CD83, CD80, CD86, CD25, and CD38, all of which were analyzed via FACS, using well known methods.
# [4] = tested on: IFN-γ from the iNKT cells; assay: IFN-γ ELISA of supernatants of DC/iNKT co-cultures; type: cell-based, human; details: analogs presented by DC
# Experimental: (§2) Different analogs of α-GalCer as indicated or LPS were added to co-cultures of human DC and iNKT cells. (A) Maturation of the DC was assessed after 40 h, gating on CD11c positive cells. Histograms indicate the CD83 and CD86 profiles of DC from different treatments; the percentages indicate the percentage of CD83hi mature DC and the numbers in parenthesis, the mean fluorescence intensity of the population contained within the labeled gate. DC and iNKT cells were co-cultured in the presence of different analogs of α-GalCer for 24 hours. Supernatants were analyzed using ELISA for the presence of (B) IL-12p40 released by the DC and (C) IFN-γ from the iNKT cells. […] Cells were co-cultured in the presence of the indicated concentration of analog and the percentages of DC with increased CD83/CD80 are shown. […] Viability of α-GalCer or analog-pulsed DC was assessed after 40 h co-culture in the presence of iNKT cells by flow cytometry. Cells were stained with propidium iodide and the percentage of live CD11c gated cells remaining in the culture are shown.
# (§3) Human monocyte-derived DC were pulsed with 150 ng of different inositol analogs and co-cultured with iNKT cells for 24 h. […] Numbers indicate the mean fluorescence intensity of the histogram gated on CD11c^+ cells.
# [5] = tested on: IL-12p40 released by the DC; assay: IL-12p40 ELISA of supernatants of DC/iNKT co-cultures; type: cell-based, human; details: DC/iNKT co-culture, 24 hours
# Experimental: as §2, §3
# Release of IL-12p40 (and bioactive p75) by DC is a marker of activation and is thought to play an important role in regulating the profile of the immune response generated in response to those DC (Trinchieri et al, Nat Rev Immunol, 2003, 3; 133-46).
# [6] = tested on: antigen-specific CD8^+ T cells; assay: OVA-specific CD8+ T cells after co-injection with OVA ([…]-Kb tetramer); type: in vivo, C57BL/6 mice; details: 1 μg with 800 μg OVA, 6 days
# Experimental: as §1
# Previously we, and others have shown that co-injection of model antigens such as OVA (Silk, Hermans et al, J Clin Invest, 2004, 114; 1800-11, Fujii, Shimizu et al, J Exp Med, 2003, 198; 267-79, Hermans, Silk et al, J Immunol, 2003, 171; 5140-7) and β-galactosidase (Silk, Hermans et al, J Clin Invest, 2004, 114; 1800-11) together with α-GalCer induces enhanced CD8^+, CD4^+ T cell and B cell responses. These were effective for therapy against tumour cells expressing the target antigen. The various analogs were co-injected with OVA into wild type mice and 6 days later the blood examined for the presence of antigen-specific CD8^+ T cells using fluorescent K^b-[…] tetramers.
# human DC = assay: DC maturation in co-culture of human DC and iNKT cells (flow cytometry CD83, CD86, CD38); type: cell-based
# Experimental: as §2, §3
# Immature human DC were cultured in the presence of a human iNKT cell clone with or without analogs or vehicle at different concentrations.
# To compare the functions of high affinity α-GalCer, intermediate affinity threitolceramide with the known, low affinity analog OCH, the three compounds were titrated onto DC and used to present to iNKT cells. Maturation of DC and DC viability were examined after 48 h.
# p40 form of IL-12 = assay: Example A: IL-12 p40 ELISA as indication of DC stimulation; type: cell-based, human
# [7] = target: T1, human invariant Vα24^+/Vβ11^+ TCR binding to hCD1d-lipid complex (Homo sapiens, UniProt P15813); assay: Surface plasmon resonance (Biacore) of soluble iNKT TCR binding to hCD1d monomers loaded with analogs; details: for Kd: equilibrium binding, read-out: Kd of the TCR binding to the monomer; for koff: kinetic measurement, read-out: rate of dissociation (Koff) between the TCR and the monomer
# T1 construct: soluble human CD1d molecules; made in house
# Experimental: Affinity and kinetics of iNKT TCR binding to hCD1d complexed with α-GalCer or OCH. Increasing concentrations from 0.4 μM to 194 μM (two-fold dilution) of iNKT TCR were injected for 5 seconds over the indicated hCD1d-GSL complexes. The binding responses of 5 concentrations are shown superimposed. The panels on the right show binding response at equilibrium.
# The affinities of a soluble NKT cell TCR for human CD1d molecules refolded with different analogs of α-GalCer were measured. Equilibrium binding and kinetic measurements respectively were made for α-GalCer (A and B), threitolceramide (C and D), 4S-threitolceramide (E and F), 4R-threitolceramide (G and H). The Kd values (μM) were calculated from equilibrium binding. The Kon values shown were calculated from Koff and Kd.
# We then assessed whether the length of the acyl and sphingosine chains could affect the affinity of iNKT TCR binding to glycolipid-CD1d complex. We refolded Vα24 and Vβ11 chains of the iNKT TCR as previously described (Gadola, Koch et al, J Exp Med, 2006, 203; 699-710) and used the purified and refolded iNKT TCR in surface plasmon resonance studies against immobilized biotinylated CD1d monomers loaded with either α-GalCer or OCH.
# To characterize the affinity of analogs of α-GalCer, biotinylated hCD1d monomers were generated using previously described protocols (Karadimitris, Gadola et al, Proc Natl Acad Sci USA, 2001, 98; 3294-8) bound to the different analogs. Surface plasmon resonance (Biacore) analysis was performed using a soluble disulphide-linked human invariant Vα24^+/Vβ11^+ TCR (Gadola, Koch et al, J Exp Med, 2006, 203; 699-710) to measure the equilibrium dissociation constants (Kd) of binding of the TCR to different monomers (FIG. 3).
# iNKT cell clone = assay: Cytokine release from iNKT cell clone stimulated with analog-pulsed C1R-human CD1d cells; type: cell-based; details: 24 h, titration
# Experimental: FIG. 9 Inositol-based α-GalCer derivatives are functional in vitro. Human monocyte-derived DC were pulsed with 150 ng of different inositol analogs and co-cultured with iNKT cells for 24 h. […] Numbers indicate the mean fluorescence intensity of the histogram gated on CD11c^+ cells. 6-Deoxy and 6-Sulfono-myo-inositolceramide induce significant (B) IL-12p40 and (C) IFN-γ production by DC and iNKT cells respectively in the supernatants of co-cultured DC and iNKT cells. […] Release of (D) IFN-g and (E) IL-4 from iNKT cells after 24 h in culture with C1R-human CD1d cells pulsed with α-GalCer, 6-Deoxy- or 6-Sulfono-myo-inositolceramide.
# The three inositol compounds were titrated on C1R cells expressing human CD1d and used to stimulate an iNKT cell clone.
molecule,measurement,setting,value
"CCCCCCCCCCCCCCCCCCCCCCCCCC(=O)N[C@@H](COCC(O)[C@@H](O)[C@@H](O)CO)[C@H](O)C(O)CCCCCCCCCCCCCC (stereo partly drawn) [Compound 1, Arabinitol Ceramide]",induction of CD86 on spleen DC in vivo,[1],induced CD86 in vivo similarly
same,skewing of cytokine response to Th2,IL-4 and IFN-γ; compared with OCH,Neither compound showed a skewed Th2 cytokine response
same,potency of cytokine induction compared with α-GalCer,IL-4 and IFN-γ; equivalent doses,less potent than α-GalCer at equivalent doses
same,"cytokine release in serum (IL-4, IFN-γ, IL-12p40/70)","IL-4 and IFN-γ; wild type mice, 1 μg i.v., 2, 6 and 18-24 h",detected in the serum with a similar time-course to that seen with α-GalCer
same,tumour growth,E.G7-OVA tumour cells,little or no tumour growth
same,OVA specific response,OVA specific response,enhancement of the OVA specific response
same,"OVA specific antibody response, adjuvant effect compared with MPL",[2],more effective as adjuvants than MPL
same,"induction of DC maturation markers (CD83, CD80, CD86, CD25, CD38)",[3],DC maturation markers are induced
same,IFN-γ released by the iNKT cells,[4],no detectable IFNγ
same,IL-12p40 released,[5],little IL-12p40 was detected
same,antigen-specific CD8+ T cell response,[6],"induced a significant CD8^+ T cell response after 6 days, although less potently than α-GalCer"
same,"DC maturation (upregulation of CD83, CD86 and CD38)","human DC; human DC with iNKT cell clone, 24 hours",only weakly functional
same,"IL-12 potency, fold less potent than Compound 3",p40 form of IL-12,approximately 1000 fold
"CCCCCCCCCCCCCCCCCCCCCCCCCC(=O)N[C@@H](COC[C@H](O)[C@@H](O)[C@@H](O)c1ccccc1)[C@H](O)[C@H](O)CCCCCCCCCCCCCC [Compound 14, 4-(S)-Phenyl Threitol Ceramide]",Kd,[7],3.84 µM
same,koff,[7],0.65 s⁻¹
"CCCCCCCCCCCCCCCCCCCCCCCCCC(=O)N[C@@H](COC[C@H](O)[C@@H](O)[C@H](O)c1ccccc1)[C@H](O)[C@H](O)CCCCCCCCCCCCCC [Compound 15, 4-(R)-Phenyl Threitol Ceramide]",Kd,[7],4.25 µM
same,koff,[7],0.506 s⁻¹
D-myo-Inositol Ceramide Salt [Compound 13],IFN-γ release from iNKT cells,iNKT cell clone,little or no IFN-γ release
same,IL-4 release from iNKT cells,iNKT cell clone,detectable IL-4 was produced when higher concentrations of the compound were used
D-myo-Inositol Ceramide [Compound 12],IFN-γ release from iNKT cells,iNKT cell clone,significant levels of both cytokines
same,IL-4 release from iNKT cells,iNKT cell clone,significant levels of both cytokines
Inositol Ceramide [Compound 10],IFN-γ release from iNKT cells,iNKT cell clone,little or no IFN-γ and IL-4
same,IL-4 release from iNKT cells,iNKT cell clone,little or no IFN-γ and IL-4
same,DC maturation and cytokine production from iNKT cells (first test),human DC; data not shown,induced detectable DC maturation and cytokine production from iNKT cells
